According to patent US20210361750A1, “Anti-Viral Lactoferrin Facemask” (priority 2020, published 2021):

Experiments:
SARS-CoV-2 = test: Cyclodextrin testing: antiviral activity against SARS-CoV-2 in Vero E6 cells (CPE); format: cell-based; details: pH 7; lactoferrin alone 10 mg/mL, cyclodextrin alone 10 mg/mL, or lactoferrin 5 mg/mL + cyclodextrin 10 mg/mL
Vero E6 cells = details: control without virus, 10 mg/mL

“cyclodextrin [cyclodextrin alone, reference compound]” was tested, and the “antiviral activity (cytopathic effect)” value (SARS-CoV-2) was “none of the experiments showed antiviral activity” and the “cytopathic effect on the cells” value (Vero E6 cells) was “neither the lactoferrin alone (10 mg/mL) or the cyclodextrin alone (10 mg/mL) had a cytopathic effect”.
